In article PMC5048659 (Arthritis Research & Therapy, 2016):
Entries after “also recorded” stand apart in the source; their conditions may differ.

Assays:
[1] = target: T1, GLUT9 (SLC2A9v2/GLUT9ΔN) (Homo sapiens, UniProt Q9NRM0); assay: GLUT9 urate transport in cRNA-injected oocytes; format: cell-based
T1 construct: expressed in transfected cells
T1 sequence (Q9NRM0 1-511 isoform Q9NRM0-2): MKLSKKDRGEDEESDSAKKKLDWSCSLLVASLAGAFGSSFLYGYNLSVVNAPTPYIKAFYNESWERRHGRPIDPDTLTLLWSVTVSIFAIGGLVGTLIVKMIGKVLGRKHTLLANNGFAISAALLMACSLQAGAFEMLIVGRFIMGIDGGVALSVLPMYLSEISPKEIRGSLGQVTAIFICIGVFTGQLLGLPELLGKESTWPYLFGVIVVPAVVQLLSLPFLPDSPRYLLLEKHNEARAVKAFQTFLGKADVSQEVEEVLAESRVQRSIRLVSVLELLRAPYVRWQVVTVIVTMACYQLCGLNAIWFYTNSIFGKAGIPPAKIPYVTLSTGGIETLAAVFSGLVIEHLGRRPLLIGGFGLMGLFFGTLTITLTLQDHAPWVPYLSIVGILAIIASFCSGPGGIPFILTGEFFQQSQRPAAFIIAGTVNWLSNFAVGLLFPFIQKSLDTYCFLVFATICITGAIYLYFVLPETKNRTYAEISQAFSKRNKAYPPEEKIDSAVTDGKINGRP
Description: For GLUT9, SLC2A9v2/GLUT9ΔN in pCMV6/neo was linearized with XmaI and NotI and cRNA transcribed using the mMessage mMachine T7 kit (Ambion). Oocytes were injected with either water or 25 ng cRNA and incubated for 3 to 5 days in ND96 buffer. For each point, 10 oocytes were incubated with 100 μM ^14C-uric acid in ND96 buffer with and without test compounds at room temperature for 60 minutes. The oocytes were then washed three to four times in ice-cold ND96 buffer and lysed prior to scintillation counting.

[2] = target: T2, ABCG2 (Homo sapiens, UniProt Q9UNQ0); assay: ABCG2 genistein net B→A flux in Caco-2 monolayers; format: cell-based
T2 construct: monolayers of Caco-2 cells expressing ABCG2 were grown on a permeable support; endogenous in cells; host or cells: Caco-2
T2 sequence (Q9UNQ0 1-655): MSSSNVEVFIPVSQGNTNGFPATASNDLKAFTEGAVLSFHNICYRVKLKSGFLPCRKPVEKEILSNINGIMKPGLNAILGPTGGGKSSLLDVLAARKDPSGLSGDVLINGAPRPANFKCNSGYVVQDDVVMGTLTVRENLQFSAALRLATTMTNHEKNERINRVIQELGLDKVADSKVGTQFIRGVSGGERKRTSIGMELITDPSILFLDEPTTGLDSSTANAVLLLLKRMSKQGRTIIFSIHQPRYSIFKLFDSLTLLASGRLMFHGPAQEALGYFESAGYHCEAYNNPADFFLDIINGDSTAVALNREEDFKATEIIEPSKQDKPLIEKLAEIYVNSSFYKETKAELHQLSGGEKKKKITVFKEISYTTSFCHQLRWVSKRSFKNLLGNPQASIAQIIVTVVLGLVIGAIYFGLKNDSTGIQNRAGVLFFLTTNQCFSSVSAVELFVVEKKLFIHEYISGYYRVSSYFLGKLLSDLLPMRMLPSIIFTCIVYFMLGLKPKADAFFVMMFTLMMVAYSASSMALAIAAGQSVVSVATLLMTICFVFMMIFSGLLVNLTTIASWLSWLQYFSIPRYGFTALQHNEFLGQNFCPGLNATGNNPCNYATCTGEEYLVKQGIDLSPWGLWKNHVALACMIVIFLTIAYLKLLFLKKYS
Description: For ABCG2, monolayers of Caco-2 cells expressing ABCG2 were grown on a permeable support ([…] membranes) in 24-transwell plates. […] Each treatment was assayed in triplicate: [^3H]-genistein substrate at 2 nM was then added for an additional 120 minutes at 37 °C. For basolateral-to-apical (B → A) flux measurements, genistein was placed in the basolateral compartment only (donor well) and a sample was taken after the 120-minute incubation period from the apical compartment (receiver well). For apical-to-basolateral (A → B) flux measurements, genistein was placed in the apical compartment only (donor well) and a sample was taken after the 120-minute incubation period from the basolateral compartment (receiver well). Samples were then subjected to scintillation counting. The inhibition of BCRP/ABCG2 was then calculated by the net B → A flux method. […]
The net transport in the B → A direction was determined by subtracting the substrate flux in the A → B direction from that in the B → A direction: NetB→Aflux=PappB→A‐PappA→B.
Percent inhibition is calculated by dividing the Net (B → A) flux in the presence of the inhibitor by the Net (B → A) flux in the absence of the inhibitor (inh): PercentInhibition=100‐100*NetB→Ainh/meanNetB→A.

[3] = tested on: healthy volunteers; assay: Clinical effect on fractional excretion of uric acid (phase 1 RDEA594-109); format: in vivo, human; conditions: for Peak FEUA: within 6 hours, baseline 5.8 %
Description: (§1) In each treatment period, plasma samples were collected within 30 minutes before dosing (pre-dose) and at 0.5, 1, 1.5, 2, 3, 4, 5, 6, 8, 10, 12, 16, 24, 30, 36, and 48 hours post-dose. Urine (total catch) was collected pretreatment at hours –24 to –18, –18 to –12, and –12 to 0, and post-dose at hours 0 to 6, 6 to 12, 12 to 24, 24 to 30, 30 to 36, and 36 to 48.
(§2) After protein precipitation of the samples, lesinurad levels in plasma and urine were measured at Ardea Biosciences by quantitative high performance liquid chromatography with tandem mass spectrometry. […] The parameters from individual profiles of lesinurad were determined using noncompartmental methods. Urine samples were analyzed for uric acid and creatinine using enzymatic methods by Covance Clinical Research Unit (Dallas, TX, USA), and pharmacodynamic (PD) parameters were determined by Covance Clinical Research Unit using SAS, Version 8.2 (SAS Institute Inc). Calculated PD parameters for uric acid included urinary excretion, renal clearance, and FEUA. FEUA was calculated by dividing the uric acid clearance by the creatinine clearance.

[4] = Lesinurad plasma pharmacokinetics and urinary excretion in the clinic; format: in vivo, human; conditions: single 200-mg dose
Description: as §1, §2

[5] = cited from earlier work

O=C(O)CSc1nnc(Br)n1-c1ccc(C2CC2)c2ccccc12 [Lesinurad, 2-((5-bromo-4-(4-cyclopropylnaphthalen-1-yl)-4H-1,2,4-triazol-3-yl)thio) acetic acid]
IC50 ([1]; 100 μM 14C-uric acid, 60 min, read-out: Potency against GLUT9): > 100 µM | Effect on GLUT9 urate transport ([1]; compound at up to 100 μM): no effect; also recorded: does not inhibit | IC50 ([2]; Caco-2, 2 nM [3H]-genistein, 120 min, read-out: Potency against ABCG2): > 100 µM | Effect on ABCG2 activity ([2]; Caco-2, at up to 100 μM): no effect | EC50 ([3]; Homo sapiens, single 200-, 400- or 600-mg doses, healthy volunteers, read-out: Half-maximal effective plasma concentration for elevating FEUA): 13 µM | FEUA in some individuals with high plasma lesinurad ([3]; healthy volunteers, single doses): up to 35% | Elevation of FEUA ([3]; single 200-mg dose, after 6 hours, p < 0.001): 3.6 fold | Peak FEUA ([3]; single 200-mg oral dose): 21.8% | Peak FEUA ([3]; single 400-mg oral dose): 26.7% | Peak FEUA ([3]; single 600-mg oral dose): 32.3% | Maximal plasma concentration [4]: 29 µM | Predicted maximal plasma-free concentration ([4]; from Cmax and 98.4 % protein binding): 0.46 µM | Fraction of compound excreted via urine [5]: approximately one third
